Laboratory results as given in patent US20250230193A1, “CYCLIC COMPOUND HAVING SELECTIVE KRAS INHIBITORY EFFECT ON HRAS AND NRAS” (CHUGAI SEIYAKU KABUSHIKI KAISHA, priority 2022, published 2025).
Where a SMILES comes first, the peptide text is derived from it. Bridges are numbered along the chain shown (N, C = ends). [ ]: non-standard residue; d: D form. The star is where a group is joined. hPhe(3-Cl-4-CF3) = N[C@@H](CCc1ccc(C(F)(F)F)c(Cl)c1)C(=O)O; NPrPhe(4-CF3) = CCCN[C@@H](Cc1ccc(C(F)(F)F)cc1)C(=O)O; NEtPhe(4-Me) = CCN[C@@H](Cc1ccc(C)cc1)C(=O)O; NMeAbu(4,4,4-F3) = CN[C@@H](CC(F)(F)F)C(=O)O; NMeGly(cPent) = CN[C@H](C(=O)O)C1CCCC1; Pro(4,4-F2) = O=C(O)[C@@H]1CC(F)(F)CN1; NMeD = CN[C@@H](CC(=O)O)C(=O)O; NMeL = CN[C@@H](CC(C)C)C(=O)O; Morpholide = C1CN(*)CCO1; NMeA = CN[C@@H](C)C(=O)O; Ac5c = NC1(C(=O)O)CCCC1; Aze = O=C(O)[C@@H]1CCN1; Ac4c = NC1(C(=O)O)CCC1; Sar = CNCC(=O)O

Key:
[1] = biological target: GDP-bound HRAS wild-type protein (Homo sapiens, UniProt P01112); test: Binding to HRAS by surface plasmon resonance (SPR), Single Cycle Kinetics; conditions: SPR; for HRAS/KRAS (ratio of KD value with respect to HRAS to KD value with respect to KRAS): GDP-bound HRAS wild-type vs GDP-bound KRAS wild-type
GDP-bound HRAS wild-type protein, sequence (P01112 whole entry): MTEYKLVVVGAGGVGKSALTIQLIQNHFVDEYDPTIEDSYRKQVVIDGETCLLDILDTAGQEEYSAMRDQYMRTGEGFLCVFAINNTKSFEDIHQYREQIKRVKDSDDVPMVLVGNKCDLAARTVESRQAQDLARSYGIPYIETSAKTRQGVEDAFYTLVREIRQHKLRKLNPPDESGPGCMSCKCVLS

[2] = biological target: GDP-bound NRAS wild-type protein (Homo sapiens, UniProt P01111); test: Binding to NRAS by surface plasmon resonance (SPR), Single Cycle Kinetics; conditions: SPR; for NRAS/KRAS (ratio of KD value with respect to NRAS to KD value with respect to KRAS): GDP-bound NRAS wild-type vs GDP-bound KRAS wild-type
GDP-bound NRAS wild-type protein, sequence (P01111 whole entry): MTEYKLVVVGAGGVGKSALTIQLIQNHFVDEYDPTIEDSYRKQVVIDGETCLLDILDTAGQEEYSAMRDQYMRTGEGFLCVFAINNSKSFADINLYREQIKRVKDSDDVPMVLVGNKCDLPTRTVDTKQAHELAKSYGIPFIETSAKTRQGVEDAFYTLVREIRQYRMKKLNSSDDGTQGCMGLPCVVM

Compound | HRAS/KRAS (ratio of KD for GDP-bound HRAS wild-type to KD for KRAS) [1] | NRAS/KRAS (ratio of KD for GDP-bound NRAS wild-type to KD for KRAS) [2] | HRAS/KRAS (ratio of KD value with respect to HRAS to KD value with respect to KRAS) [1] | NRAS/KRAS (ratio of KD value with respect to NRAS to KD value with respect to KRAS) [2]
CCCN1C(=O)[C@@H]2CCN2C(=O)[C@H](C)N(C)C(=O)[C@H]([C@@H](C)CC)NC(=O)[C@H](CC(C)C)N(C)C(=O)C[C@@H](C(=O)N2CCOCC2)NC(=O)[C@H](C2CCCC2)N(C)C(=O)C2(CCC2)NC(=O)[C@@H]2CC(F)(F)CN2C(=O)[C@H](CCc2ccc(C(F)(F)F)c(Cl)c2)NC(=O)CN(C)C(=O)[C@@H]1Cc1ccc(C(F)(F)F)cc1 [PP0346] ([NMeL]I[NMeA][Aze][NPrPhe(4-CF3)][Sar][hPhe(3-Cl-4-CF3)][Pro(4,4-F2)][Ac4c][NMeGly(cPent)]D-Morpholide; lactam N-11) | B (a compound having 3 or more and less than 10 is denoted as B) | C (A compound having a KD ratio of 0.1 or more and less than 3 is denoted as C) |  | 
CC[C@H](C)[C@@H]1NC(=O)[C@H](CC(F)(F)F)N(C)C(=O)C[C@@H](C(=O)N2CCOCC2)N(C)C(=O)[C@H](C2CCCC2)N(C)C(=O)C2(CCCC2)NC(=O)[C@@H]2CCCN2C(=O)[C@H](CCc2ccc(C(F)(F)F)c(Cl)c2)NC(=O)CN(C)C(=O)[C@H](Cc2ccc(C)cc2)N(CC)C(=O)CN(C)C(=O)CN(C)C1=O [PP0032] ([NMeAbu(4,4,4-F3)]I[Sar][Sar][NEtPhe(4-Me)][Sar][hPhe(3-Cl-4-CF3)]P[Ac5c][NMeGly(cPent)][NMeD]-Morpholide; lactam N-11) | C (A compound having a KD ratio of 0.1 or more and less than 3 is denoted as C) | C (A compound having a KD ratio of 0.1 or more and less than 3 is denoted as C) |  | 
CC[C@H](C)[C@@H]1NC(=O)[C@H](CC(C)C)N(C)C(=O)C[C@@H](C(=O)N2CCOCC2)N(C)C(=O)[C@H](C2CCCC2)N(C)C(=O)C2(CCC2)NC(=O)[C@@H]2[C@@H](OCC3CC3)CCN2C(=O)[C@H](CCc2cc(F)c(C(F)(F)F)c(F)c2)NC(=O)CN(C)C(=O)[C@H](Cc2ccc(C(F)(F)F)cc2)N2CCCC[C@@H](C2=O)N(C)C(=O)CN(C)C1=O [PP1072] |  |  | B (a compound having 3 or more and less than 10 is denoted as B) | B (a compound having 3 or more and less than 10 is denoted as B)
CCO[C@@H]1C[C@H]2C(=O)NC3(CCC3)C(=O)N(C)[C@@H](C3CCCC3)C(=O)N(C)[C@H](C(=O)N(C)C)CC(=O)N(C)[C@@H](Cc3cccs3)C(=O)N[C@@H]([C@@H](C)CC)C(=O)N(C)CC(=O)N(C)[C@H]3C/C=C\CCN(C3=O)[C@@H](Cc3ccc(C(F)(F)F)cc3)C(=O)N(C)CC(=O)N[C@@H](CCc3cc(F)c(C(F)(F)F)c(F)c3)C(=O)N2C1 [PP1123] |  |  | B (a compound having 3 or more and less than 10 is denoted as B) | A (a compound having 10 or more and less than 20 is denoted as A)
CCO[C@@H]1C[C@H]2C(=O)NC3(CCC3)C(=O)N(C)[C@@H](C3CCCC3)C(=O)N(C)[C@H](C(=O)N(C)C)CC(=O)N(CC)[C@@H](CC(C)C)C(=O)N[C@@H]([C@@H](C)CC)C(=O)N(C)CC(=O)N(C)[C@H]3CC(C)=CCN(C3=O)[C@@H](Cc3ccc(C(F)(F)F)cc3)C(=O)N(C)CC(=O)N[C@@H](CCc3cc(F)c(C(F)(F)F)c(F)c3)C(=O)N2C1 [PP1037] |  |  | C (A compound having a KD ratio of 0.1 or more and less than 3 is denoted as C) | C (A compound having a KD ratio of 0.1 or more and less than 3 is denoted as C)
CCO[C@@H]1C[C@H]2C(=O)NC3(CCC3)C(=O)N(C)[C@@H](C3CCCC3)C(=O)N(C)[C@H](C(=O)N3CCOCC3)CC(=O)N(C)[C@@H](Cc3ccc(C)cc3)C(=O)N[C@@H]([C@@H](C)CC)C(=O)N(C)CC(=O)N(C)[C@H]3CCCCCN(C3=O)[C@@H](Cc3ccc(C(F)(F)F)cc3)C(=O)N(C)CC(=O)N[C@@H](CCc3cc(F)c(C(F)(F)F)c(F)c3)C(=O)N2C1 [PP0933] |  |  | B (a compound having 3 or more and less than 10 is denoted as B) | A (a compound having 10 or more and less than 20 is denoted as A)
CC[C@H](C)[C@@H]1NC(=O)[C@H](CC(C)C)N(C)C(=O)C[C@@H](C(=O)N2CCOCC2)N(C)C(=O)[C@H](C2CCCC2)N(C)C(=O)C2(CCC2)NC(=O)[C@@H]2[C@@H](OC)CCN2C(=O)[C@H](CCc2cc(F)c(C(F)(F)F)c(F)c2)NC(=O)CN(C)C(=O)[C@H](Cc2ccc(C(F)(F)F)cc2)N2CCCCC[C@@H](C2=O)N(C)C(=O)CN(C)C1=O [PP1067] |  |  | B (a compound having 3 or more and less than 10 is denoted as B) | B (a compound having 3 or more and less than 10 is denoted as B)
